# Experimental data reported in paper PMC9574855 (Journal of Medicinal Chemistry, 2022).
# Assays:
# 403 WT human kinases = test: DiscoverX scanMAX kinome-wide selectivity at 1 μM; format: binding
# [1] = system: His6-SARS-CoV-2 spike protein uptake by HEK293T-ACE2 cells; test: Spike uptake assay in HEK293T-ACE2 cells; format: cell-based, human; conditions: 1 μM
# [2] = system: lentivirus pseudotyped with the SARS-CoV-2 spike glycoprotein; format: cell-based; conditions: Calu-3 cells, 1 μM
# DBT cells = test: LDH cell viability assay in DBT cells; format: cell-based, mouse; conditions: up to 10 μM
# MHV-nLuc virus = test: microbe, parasite or virus in culture; format: cell-based, mouse hepatitis virus (MHV); conditions: for inhibition of viral replication (MHV-nLuc), in words: DBT cells; for IC50: Murine coronavirus, read-out: MHV replication pIC50 (converted)
# [3] = system: small panel of understudied kinases; test: Eurofins enzymatic profiling in targeted kinase panel; format: biochemical, human; conditions: 1 μM, Table S2 panel
# PIKfyve [4] = molecular target: T1, PIKfyve (Homo sapiens, UniProt Q9Y2I7); test: biochemical; format: biochemical
# T1 sequence (Q9Y2I7 whole entry): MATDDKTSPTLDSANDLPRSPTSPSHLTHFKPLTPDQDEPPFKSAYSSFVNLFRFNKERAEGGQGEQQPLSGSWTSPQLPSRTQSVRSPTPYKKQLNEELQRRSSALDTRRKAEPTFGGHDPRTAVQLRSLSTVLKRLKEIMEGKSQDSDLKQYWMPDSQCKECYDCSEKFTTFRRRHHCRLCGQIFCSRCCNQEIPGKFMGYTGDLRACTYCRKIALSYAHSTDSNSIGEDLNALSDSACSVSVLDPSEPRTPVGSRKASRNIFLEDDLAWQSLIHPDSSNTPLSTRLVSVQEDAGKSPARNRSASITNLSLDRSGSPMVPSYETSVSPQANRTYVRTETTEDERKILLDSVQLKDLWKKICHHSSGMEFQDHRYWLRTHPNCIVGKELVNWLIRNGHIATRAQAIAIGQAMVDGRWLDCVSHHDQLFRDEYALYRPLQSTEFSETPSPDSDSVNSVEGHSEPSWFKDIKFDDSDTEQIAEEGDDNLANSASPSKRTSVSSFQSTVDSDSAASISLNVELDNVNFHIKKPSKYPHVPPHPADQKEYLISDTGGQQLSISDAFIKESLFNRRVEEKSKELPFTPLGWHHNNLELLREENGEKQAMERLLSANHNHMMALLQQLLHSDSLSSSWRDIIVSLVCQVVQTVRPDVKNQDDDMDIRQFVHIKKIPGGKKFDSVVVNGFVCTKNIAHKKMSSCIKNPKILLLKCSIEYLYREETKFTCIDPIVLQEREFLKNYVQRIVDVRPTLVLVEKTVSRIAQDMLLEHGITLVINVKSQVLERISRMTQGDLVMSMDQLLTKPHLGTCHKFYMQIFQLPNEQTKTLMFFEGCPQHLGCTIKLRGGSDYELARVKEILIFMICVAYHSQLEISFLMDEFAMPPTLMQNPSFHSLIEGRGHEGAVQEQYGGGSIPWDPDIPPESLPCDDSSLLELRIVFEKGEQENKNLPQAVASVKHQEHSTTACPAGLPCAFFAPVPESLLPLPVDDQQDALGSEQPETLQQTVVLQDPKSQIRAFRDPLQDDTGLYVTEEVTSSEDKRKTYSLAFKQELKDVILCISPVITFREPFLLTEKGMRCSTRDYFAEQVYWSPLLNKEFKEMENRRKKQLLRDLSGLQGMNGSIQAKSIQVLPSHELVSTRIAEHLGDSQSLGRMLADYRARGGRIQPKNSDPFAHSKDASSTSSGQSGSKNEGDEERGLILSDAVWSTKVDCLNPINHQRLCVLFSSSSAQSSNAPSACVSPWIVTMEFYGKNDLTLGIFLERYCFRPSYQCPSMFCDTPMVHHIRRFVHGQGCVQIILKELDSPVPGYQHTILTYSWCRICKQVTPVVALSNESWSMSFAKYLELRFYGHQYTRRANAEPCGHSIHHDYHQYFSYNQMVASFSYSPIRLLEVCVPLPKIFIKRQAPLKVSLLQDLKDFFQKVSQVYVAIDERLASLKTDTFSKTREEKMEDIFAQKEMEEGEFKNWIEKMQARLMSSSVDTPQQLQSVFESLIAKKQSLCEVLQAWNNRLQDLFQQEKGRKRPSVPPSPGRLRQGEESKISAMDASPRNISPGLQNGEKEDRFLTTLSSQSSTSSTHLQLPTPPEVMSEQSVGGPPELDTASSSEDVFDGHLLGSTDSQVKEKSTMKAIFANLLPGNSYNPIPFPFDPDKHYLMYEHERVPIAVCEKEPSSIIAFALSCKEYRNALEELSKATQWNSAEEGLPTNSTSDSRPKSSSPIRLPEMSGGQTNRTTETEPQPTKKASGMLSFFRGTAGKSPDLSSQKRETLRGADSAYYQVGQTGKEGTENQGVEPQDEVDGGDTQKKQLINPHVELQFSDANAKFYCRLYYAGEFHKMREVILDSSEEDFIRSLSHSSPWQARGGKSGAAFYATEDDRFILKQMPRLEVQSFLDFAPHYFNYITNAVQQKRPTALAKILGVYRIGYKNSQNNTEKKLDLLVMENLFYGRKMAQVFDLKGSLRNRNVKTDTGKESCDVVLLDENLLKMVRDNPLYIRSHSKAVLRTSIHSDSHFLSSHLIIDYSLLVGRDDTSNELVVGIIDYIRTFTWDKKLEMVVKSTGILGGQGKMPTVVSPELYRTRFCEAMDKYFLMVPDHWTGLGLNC
# SH-SY5Y cells = test: Lysosomal staining; format: cell-based, human; conditions: 5 μM, 24 h
# bald GFP lentivirus = format: cell-based; conditions: Calu-3 cells, 1 μM
# [5] = system: His6-SARS-CoV-2 spike protein uptake by Caco-2 cells; test: Spike uptake assay in Caco-2 cells; format: cell-based; conditions: 1 μM
# MYLK4 = molecular target: T2, MYLK4 (Homo sapiens, UniProt Q86YV6); test: NanoBRET assay; format: cell-based
# T2 sequence (Q86YV6 1-388): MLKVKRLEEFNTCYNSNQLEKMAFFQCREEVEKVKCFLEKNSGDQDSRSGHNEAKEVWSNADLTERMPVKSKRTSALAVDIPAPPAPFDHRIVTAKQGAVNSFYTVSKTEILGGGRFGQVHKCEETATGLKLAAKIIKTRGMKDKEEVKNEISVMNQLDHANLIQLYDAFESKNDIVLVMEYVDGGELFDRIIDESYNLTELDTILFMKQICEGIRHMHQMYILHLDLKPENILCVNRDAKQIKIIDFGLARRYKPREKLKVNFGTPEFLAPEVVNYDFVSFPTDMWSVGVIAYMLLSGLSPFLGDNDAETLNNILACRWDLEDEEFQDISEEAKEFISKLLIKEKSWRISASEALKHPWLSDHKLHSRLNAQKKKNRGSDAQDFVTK
# [6] = system: His6-SARS-CoV-2 spike protein uptake by Calu-3 cells; test: Spike uptake assay in Calu-3 cells; format: cell-based; conditions: 1 μM
# PIKfyve [7] = molecular target: T1, PIKfyve; test: cell-based
# SARS-CoV-2-nLuc = test: microbe, parasite or virus in culture; format: cell-based
# A549-ACE2 cells = conditions: LDH assay
# [8] = PIKfyve NB IC50, NanoBRET, HEK293 cells
structure (smiles),measurement,setting,value
"CC(C)(O)C#Cc1ccc2[nH]c3c(c2c1)-c1nc(N)ncc1CCC3 [AMG28, 4-(2-Amino-5,6,7,8-tetrahydropyrimido[4′,5′:3,4]cyclohepta[1,2-b]indol-11-yl)-2-methylbut-3-yn-2-ol, reference compound]",# scanMAX kinases with PoC < 10,403 WT human kinases,21
"CCC(=O)Nc1cc(Nc2cc(NC3CC3)n3ncc(C#N)c3n2)ccc1C [SGC-CK2-1, reference compound]",His6-SARS-CoV-2 spike protein uptake,[1],efficiently decreased spike protein uptake
"CC(C)(O)C#Cc1ccc2[nH]c3c(c2c1)-c1nc(N)ncc1CC3 [compound 1, 4-(2-Amino-6,7-dihydro-5H-pyrimido[5,4-c]carbazol-10-yl)-2-methylbut-3-yn-2-ol]",# scanMAX kinases with PoC < 10,403 WT human kinases,20
"CC(C)(O)C#Cc1ccc2[nH]c3c(c2c1)-c1nc(N)ncc1CCCC3 [compound 2, 4-(2-Amino-6,7,8,9-tetrahydro-5H-pyrimido[4′,5′:3,4]cycloocta[1,2-b]indol-12-yl)-2-methylbut-3-yn-2-ol]",# scanMAX kinases with PoC < 10,403 WT human kinases,3
"CC(C)(O)C#Cc1ccc2[nH]cc(-c3ccnc(N)n3)c2c1 [compound 3, 4-(3-(2-Aminopyrimidin-4-yl)-1H-indol-5-yl)-2-methylbut-3-yn-2-ol]",# scanMAX kinases with PoC < 10,403 WT human kinases,34
"Nc1ncc2c(n1)-c1c([nH]c3ccc(C#Cc4ccncc4)cc13)CC2 [compound 4, 10-(Pyridin-4-ylethynyl)-6,7-dihydro-5H-pyrimido[5,4-c]carbazol-2-amine]",# scanMAX kinases with PoC < 10,403 WT human kinases,1
"Nc1ncc2c(n1)-c1c([nH]c3ccc(C#Cc4ccncc4)cc13)CCC2 [compound 5, 11-(Pyridin-4-ylethynyl)-5,6,7,8-tetrahydropyrimido[4′,5′:3,4]cyclohepta[1,2-b]indol-2-amine]",# scanMAX kinases with PoC < 10,403 WT human kinases,5
"Nc1ncc2c(n1)-c1c([nH]c3ccc(C#Cc4ccncc4)cc13)CCCC2 [compound 6, 12-(Pyridin-4-ylethynyl)-6,7,8,9-tetrahydro-5H-pyrimido[4′,5′:3,4]cycloocta[1,2-b]indol-2-amine]",# scanMAX kinases with PoC < 10,403 WT human kinases,0
"Nc1ncc2c(n1)-c1c([nH]c3ccc(-c4ccc(F)cc4)cc13)CC2 [compound 7, 10-(4-Fluorophenyl)-6,7-dihydro-5H-pyrimido[5,4-c]carbazol-2-amine]",# scanMAX kinases with PoC < 10,403 WT human kinases,3
"Nc1ncc2c(n1)-c1c([nH]c3ccc(-c4ccc(F)cc4)cc13)CCC2 [compound 8, 11-(4-Fluorophenyl)-5,6,7,8-tetrahydropyrimido[4′,5′:3,4]cyclohepta[1,2-b]indol-2-amine]",# scanMAX kinases with PoC < 10,403 WT human kinases,2
same,entry of lentivirus pseudotyped with SARS-CoV-2 spike glycoprotein,[2],inhibition of pseudoviral entry
same,effect on cell viability in DBT cells,DBT cells,no significant effect on cell viability up to 10 μM
same,"inhibition of viral replication (MHV-nLuc), in words",MHV-nLuc virus,inhibited viral replication
same,highest inhibition of any kinase in the targeted enzymatic panel,[3],≤ 55%
same,selectivity over all other kinases evaluated,PIKfyve [4]; versus PIKfyve enzymatic and NanoBRET IC50 values,> 415 fold
same,vacuoles in LysoTracker-stained cells,SH-SY5Y cells,vacuoles are present
same,His6-SARS-CoV-2 spike protein uptake,[1],significantly reduced spike protein uptake
same,entry of bald lentivirus,bald GFP lentivirus,entry of bald lentivirus was not impacted
"Nc1ncc2c(n1)-c1c([nH]c3ccc(-c4ccc(F)cc4)cc13)CCCC2 [compound 9, 12-(4-Fluorophenyl)-6,7,8,9-tetrahydro-5H-pyrimido[4′,5′:3,4]cycloocta[1,2-b]indol-2-amine]",# scanMAX kinases with PoC < 10,403 WT human kinases,2
"CC(C)C(O)C#Cc1ccc2[nH]c3c(c2c1)-c1nc(N)ncc1CC3 (stereo not shown) [compound 10, 1-(2-Amino-6,7-dihydro-5H-pyrimido[5,4-c]carbazol-10-yl)-4-methylpent-1-yn-3-ol]",# scanMAX kinases with PoC < 10,403 WT human kinases,11
"CC(C)C(O)C#Cc1ccc2[nH]c3c(c2c1)-c1nc(N)ncc1CCC3 (stereo not shown) [compound 11, 1-(2-Amino-5,6,7,8-tetrahydropyrimido[4′,5′:3,4]cyclohepta[1,2-b]indol-11-yl)-4-methylpent-1-yn-3-ol]",# scanMAX kinases with PoC < 10,403 WT human kinases,7
"Cn1cc(-c2ccc3[nH]c4c(c3c2)-c2nc(N)ncc2CC4)cn1 [compound 12, 10-(1-Methyl-1H-pyrazol-4-yl)-6,7-dihydro-5H-pyrimido[5,4-c]carbazol-2-amine]",# scanMAX kinases with PoC < 10,403 WT human kinases,7
"Cn1cc(-c2ccc3[nH]c4c(c3c2)-c2nc(N)ncc2CCC4)cn1 [compound 13, 11-(1-Methyl-1H-pyrazol-4-yl)-5,6,7,8-tetrahydropyrimido[4′,5′:3,4]cyclohepta[1,2-b]indol-2-amine]",# scanMAX kinases with PoC < 10,403 WT human kinases,8
"CN(C)CC#Cc1ccc2[nH]c3c(c2c1)-c1nc(N)ncc1CCC3 [compound 17, 11-(3-(Dimethylamino)prop-1-yn-1-yl)-5,6,7,8-tetrahydropyrimido[4′,5′:3,4]cyclohepta[1,2-b]indol-2-amine]",His6-SARS-CoV-2 spike protein uptake,[5],efficiently reduced spike protein uptake
same,IC50,MYLK4,265 nM
same,entry of lentivirus pseudotyped with SARS-CoV-2 spike glycoprotein,[2],inhibition of pseudoviral entry
same,effect on cell viability in DBT cells,DBT cells,no significant effect on cell viability up to 10 μM
same,IC50,PIKfyve [4],< 100 nM
same,His6-SARS-CoV-2 spike protein uptake,[6],efficiently reduced spike protein uptake
same,vacuoles in LysoTracker-stained cells,SH-SY5Y cells,vacuoles are present
same,His6-SARS-CoV-2 spike protein uptake,[1],significantly reduced spike protein uptake
same,entry of bald lentivirus,bald GFP lentivirus,entry of bald lentivirus was not impacted
same,IC50,"PIKfyve [7]; PIKfyve NanoBRET IC50, bound stated with SGC probe criteria",< 1000 nM
"COC(C)(C)C#Cc1ccc2[nH]c3c(c2c1)-c1nc(N)ncc1CCC3 [compound 20, 11-(3-Methoxy-3-methylbut-1-yn-1-yl)-5,6,7,8-tetrahydropyrimido[4′,5′:3,4]cyclohepta[1,2-b]indol-2-amine]",# scanMAX kinases with PoC < 10,403 WT human kinases,11–14
"CC(O)C#Cc1ccc2[nH]c3c(c2c1)-c1nc(N)ncc1CCC3 (stereo not shown) [compound 21, 4-(2-Amino-5,6,7,8-tetrahydropyrimido[4′,5′:3,4]cyclohepta[1,2-b]indol-11-yl)but-3-yn-2-ol]",IC50,PIKfyve [7]; [8],< 20 nM
"CC(C)(C#Cc1ccc2[nH]c3c(c2c1)-c1nc(N)ncc1CCC3)CO [compound 23, 4-(2-Amino-5,6,7,8-tetrahydropyrimido[4′,5′:3,4]cyclohepta[1,2-b]indol-11-yl)-2,2-dimethylbut-3-yn-1-ol]",# scanMAX kinases with PoC < 10,403 WT human kinases,11–14
"CC(C)(O)CC#Cc1ccc2[nH]c3c(c2c1)-c1nc(N)ncc1CCC3 [compound 24, 5-(2-Amino-5,6,7,8-tetrahydropyrimido[4′,5′:3,4]cyclohepta[1,2-b]indol-11-yl)-2-methylpent-4-yn-2-ol]",# scanMAX kinases with PoC < 10,403 WT human kinases,11–14
"CCC(C)(O)C#Cc1ccc2[nH]c3c(c2c1)-c1nc(N)ncc1CCC3 (stereo not shown) [compound 25, 1-(2-Amino-5,6,7,8-tetrahydropyrimido[4′,5′:3,4]cyclohepta[1,2-b]indol-11-yl)-3-methylpent-1-yn-3-ol]",IC50,PIKfyve [7]; [8],< 20 nM
"CCC(O)(C#Cc1ccc2[nH]c3c(c2c1)-c1nc(N)ncc1CCC3)CC [compound 26, 1-(2-Amino-5,6,7,8-tetrahydropyrimido[4′,5′:3,4]cyclohepta[1,2-b]indol-11-yl)-3-ethylpent-1-yn-3-ol]",IC50,MHV-nLuc virus,74.1 nM
same,IC50,"SARS-CoV-2-nLuc; Severe acute respiratory syndrome coronavirus 2, A549-ACE2, 46 h, read-out: SARS-CoV-2 replication IC50",23.9 nM
same,IC50,PIKfyve [7]; [8],< 20 nM
"Cn1cncc1C#Cc1ccc2[nH]c3c(c2c1)-c1nc(N)ncc1CCCC3 [compound 27, 12-((1-Methyl-1H-imidazol-5-yl)ethynyl)-6,7,8,9-tetrahydro-5H-pyrimido[4′,5′:3,4]cycloocta[1,2-b]indol-2-amine]",# scanMAX kinases with PoC < 10,403 WT human kinases,0
"CN(C)CC#Cc1ccc2[nH]c3c(c2c1)-c1nc(N)ncc1CCCC3 [compound 29, 12-(3-(Dimethylamino)prop-1-yn-1-yl)-6,7,8,9-tetrahydro-5H-pyrimido[4′,5′:3,4]cycloocta[1,2-b]indol-2-amine]",# scanMAX kinases with PoC < 10,403 WT human kinases,0
"Nc1ncc2c(n1)-c1c([nH]c3ccc(C4CC4)cc13)CCCC2 [compound 30, 12-Cyclopropyl-6,7,8,9-tetrahydro-5H-pyrimido[4′,5′:3,4]cycloocta[1,2-b]indol-2-amine]",# scanMAX kinases with PoC < 10,403 WT human kinases,1
same,entry of lentivirus pseudotyped with SARS-CoV-2 spike glycoprotein,[2],did not inhibit pseudoviral entry
same,effect on cell viability in DBT cells,DBT cells,nontoxic up to 10 μM
same,"inhibition of viral replication (MHV-nLuc), in words",MHV-nLuc virus,failed to inhibit viral replication
same,IC50,MHV-nLuc virus,10000 nM
same,toxicity to A549-ACE2 cells,A549-ACE2 cells,did not inhibit SARS-CoV-2 replication or elicit any toxicity
same,"inhibition of SARS-CoV-2 replication, in words",SARS-CoV-2-nLuc; A549-ACE2 cells,did not inhibit SARS-CoV-2 replication
same,His6-SARS-CoV-2 spike protein uptake,[1],no effect on spike protein uptake
same,entry of bald lentivirus,bald GFP lentivirus,entry of bald lentivirus was not impacted
